Experimental data reported in patent publication US20200011856A1, “Method for Determining the Effectiveness of Treatment for the Prevention of Heartworm Disease” (priority 2017, published 2020).
Values joined by “and” are separate entries in the source; they are usually repeats but may differ in a detail not shown here. Equal values may be shown once.

Key:
[1] = tested on: Dirofilaria immitis; test: D. immitis L3 infection of NSG mice (FR3 Missouri strain or strain not stated), treatment, recovery and count of worms at necropsy; assay type: in vivo; conditions: for % Rec (percent of the original 50 Di recovered): 1 mg/kg
[2] = tested on: Dirofilaria immitis (Merial worms, UC strain); test: D. immitis L3 infection of NSG mice with Merial worms / UC strain, treatment, recovery and count of worms; assay type: in vivo; conditions: for % Rec, Mean / Mean % Rec: group mean; for Mean Survival / Survival, Mean: in vivo
[3] = NSG mice, 50 Di L3 Merial worms, 1 mg/kg on Days 1, 15, and 30, recovery Days 41 to 43
[4] = NSG mice, 50 Di L3 UC strain, High Dose 2 mg/kg on Days 1, 15, and 30, recovery Days 41 and 42
[5] = NSG mice, 50 Di L3 UC strain, Normal Dose 1 mg/kg on Days 1, 15, and 30, recovery Days 41 and 42

## CC(C)C[C@H]1C(=O)O[C@H](C)C(=O)N(C)[C@@H](CC(C)(C)F)C(=O)O[C@H](Cc2ccc(C3CCOCC3)cc2)C(=O)N(C)[C@@H](CC(C)C)C(=O)O[C@H](C)C(=O)N(C)[C@@H](CC(C)(C)F)C(=O)O[C@H](Cc2ccc(C3CCOCC3)cc2)C(=O)N1C [compound 8800]
[1]; 8800 5 mg/kg Days 1, 15, 30, 50 Di L3 per NSG mouse, Table 14, vs Control
  % Red: 100%
[1]; 8800 5 mg/kg Days 1, 15, 30, 50 Di L3 per NSG mouse, recovery Days 41 to 42, Table 14, group mean
  % Rec, Mean: 0%
[1]; 8800 5 mg/kg Days 1, 15, 30, 50 Di L3 per NSG mouse, recovery Days 41 to 42, Table 14, individual mice
  % Rec: 0%
[1]; NSG mice, 50 Di L3, 2x (1 mg/kg) at Days 1 and 30, recovery Days 41 to 43
  % Red: 38%
[1]; NSG mice, 50 Di L3 Day 0, 1 mg/kg EMO or 8800 on Days 30 and 60, recovery Days 83 and 84
  % Red: 43%
[1]; NSG mice, 50 Di L3 Day 0, 1 mg/kg on Day 30, recovery Days 41 to 43
  % Red (percent reduction in percent of Di recovered compared to control): 23%
[1]; Table 9, NSG mice, 50 Di L3, 1 mg/kg on Days 1, 15, and 30, recovery Days 41 to 43
  % Red: 73%
[1]; Table 9, group mean, NSG mice, 50 Di L3, 1 mg/kg on Days 1, 15, and 30, recovery Days 41 to 43
  Mean % Rec: 9%
[1]; Table 9, individual mouse, NSG mice, 50 Di L3, 1 mg/kg on Days 1, 15, and 30, recovery Days 41 to 43
  % Rec: 8% (3×) and 10% and 28% and 16% and 0%
[1]; Table 11, NSG mice, 50 Di L3, 0.3 mg/kg on Days 1, 15, and 30, recovery Days 41 to 42
  % Red: 0%
[1]; Table 11, NSG mice, 50 Di L3, 1 mg/kg on Days 1, 15, and 30, recovery Days 41 to 42
  % Red: 71%
[1]; Table 11, group mean, NSG mice, 50 Di L3, 0.3 mg/kg on Days 1, 15, and 30, recovery Days 41 to 42
  Mean % Rec: 26%
[1]; Table 11, group mean, NSG mice, 50 Di L3, 1 mg/kg on Days 1, 15, and 30, recovery Days 41 to 42
  Mean % Rec: 7%
[1]; Table 11, individual mouse, NSG mice, 50 Di L3, 0.3 mg/kg on Days 1, 15, and 30, recovery Days 41 to 42
  % Rec: 16% (2×) and 36% (3×) and 14%
[1]; Table 11, individual mouse, NSG mice, 50 Di L3, 1 mg/kg on Days 1, 15, and 30, recovery Days 41 to 42
  % Rec: 4% (2×) and 2% and 16% and 8% and 6%
[1]; group mean, NSG mice, 50 Di L3, 2x (1 mg/kg) at Days 1 and 30, recovery Days 41 to 43
  Mean % Rec: 21%
[1]; group mean, NSG mice, 50 Di L3 Day 0, 1 mg/kg EMO or 8800 on Days 30 and 60, recovery Days 83 and 84
  Mean % Rec: 8%
[1]; group mean, NSG mice, 50 Di L3 Day 0, 1 mg/kg on Day 30, recovery Days 41 to 43
  Mean % Rec: 31%
[1]; in vivo, 5 mg/kg
  Survival: 0
  Survival, Mean: 0
[1]; individual mouse, NSG mice, 50 Di L3, 2x (1 mg/kg) at Days 1 and 30, recovery Days 41 to 43
  % Rec: 22% and 16% and 12% and 26% and 20% and 32%
[1]; individual mouse, NSG mice, 50 Di L3 Day 0, 1 mg/kg EMO or 8800 on Days 30 and 60, recovery Days 83 and 84
  % Rec (percent of the original 50 Di recovered): 14% and 4% (2×) and 10% and 12% and 6%
[1]; individual mouse, NSG mice, 50 Di L3 Day 0, 1 mg/kg on Day 30, recovery Days 41 to 43
  % Rec (percent of the original 50 Di recovered): 24% (3×) and 36% and 28% and 52%
[2]; 8800 1 mg/kg Days 1, 15, 30, 50 Di L3 (UC Strain) per NSG mouse, recovery Days 41 to 43
  % Rec, Mean: 10%
[2]; 8800 1 mg/kg Days 1, 15, 30, 50 Di L3 (UC Strain) per NSG mouse, recovery Days 41 to 43, individual mice, 1 mg/kg
  % Rec: 10% (2×) and 14% and 16% and 4% and 6% and 12%
[2]; 8800 1 mg/kg Days 1, 15, 30, 50 Di L3 (UC Strain) per NSG mouse, vs Control
  % Red: 73%
[2]; 8800 2 mg/kg Days 1, 15, 30, 50 Di L3 (UC Strain) per NSG mouse, recovery Days 41 to 43
  % Rec, Mean: 2%
[2]; 8800 2 mg/kg Days 1, 15, 30, 50 Di L3 (UC Strain) per NSG mouse, recovery Days 41 to 43, individual mice, 2 mg/kg
  % Rec: 2% (3×) and 0% (2×) and 6% and 4%
[2]; 8800 2 mg/kg Days 1, 15, 30, 50 Di L3 (UC Strain) per NSG mouse, vs Control
  % Red: 94%
[2]; [3]
  % Red: 65%
  Mean % Rec: 12%
[2]; [4]
  % Red: 94%
  Mean % Rec: 2%
[2]; [5]
  % Red: 81%
  Mean % Rec: 7%
[2]; 1 mg/kg
  Mean Survival: 6 and 4
  Survival, Mean: 5
[2]; 2 mg/kg
  Mean Survival: 1
  Survival, Mean: 1
[2]; individual mouse, NSG mice, 50 Di L3 Merial worms, 1 mg/kg on Days 1, 15, and 30, recovery Days 41 to 43, 1 mg/kg
  % Rec: 0% (2×) and 12% (3×) and 8% and 32% and 16%
[2]; individual mouse, NSG mice, 50 Di L3 UC strain, High Dose 2 mg/kg on Days 1, 15, and 30, recovery Days 41 and 42, 2 mg/kg
  % Rec: 2% (3×) and 0% (3×) and 8%
[2]; individual mouse, NSG mice, 50 Di L3 UC strain, Normal Dose 1 mg/kg on Days 1, 15, and 30, recovery Days 41 and 42, 1 mg/kg
  % Rec: 6% (2×) and 4% and 2% and 8% and 10% and 14%
